This passage reports pest or weed control results from patent publication US20110086759A1, “CHEMICAL COMPOUNDS” (SYNGENTA CROP PROTECTION, INC., priority 2007, published 2011).

Holding throughout (format): in vivo
The test system of assay [1] is Alopecurus myosuroides (ALOMY). Nature of the assay: Pre-emergence biological efficacy, glasshouse pot test. The following applies: 312 h, pre-emergence, 1,000 g/ha, evaluated after 13 days (100=total damage; 0=no damage), read-out: Percentage damage ALOMY. In a few lines: (§1)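 One day after seeds were sown in pots, compound was sprayed at 1000 or 250 g/ha. Plants were kept at 24/16 °C with 14 h light and 65% humidity and watered twice daily; damage was graded at day 13 (0 none, 100 total).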

Assay [2] concerns Amaranthus retoflexus (AMARE). Described as above. The following applies: Amaranthus retroflexus, 312 h; pre-emergence, 1,000 g/ha, evaluated after 13 days (100=total damage; 0=no damage); read-out: Percentage damage AMARE. In a few lines:
as §1

Assay [3] deals with Echinochloa crus-galli (ECHCG). The assay is described as above. The following applies: 312 h, pre-emergence, 1,000 g/ha, evaluated after 13 days (100=total damage; 0=no damage), read-out: Percentage damage ECHCG. In a few lines:
as §1

Assay [4] has as its system Ipomea hederaceae (IPOHE). Described as above. Conditions: Ipomoea hederacea, 312 h; pre-emergence, 1,000 g/ha, evaluated after 13 days (100=total damage; 0=no damage); read-out: Percentage damage IPOHE. The essentials:
as §1

In assay [5] the test system is Setaria faberi (SETFA). The description is as above. Conditions: 312 h, pre-emergence, 1,000 g/ha, evaluated after 13 days (100=total damage; 0=no damage), read-out: Percentage damage SETFA. The essentials:
as §1

For assay [6], the system named is Solanum nigrum (SOLNI). The description is as above. Conditions: 312 h, pre-emergence, 1,000 g/ha, evaluated after 13 days (100=total damage; 0=no damage), read-out: Percentage damage SOLNI. In a few lines: as §1
The test system of assay [7] is Alopecurus myosuroides (ALOMY). Description: Post-emergence biological efficacy, glasshouse pot test. Conditions: 312 h, post-emergence, 1,000 g/ha, evaluated after 13 days (100=total damage; 0=no damage), read-out: Percentage damage caused to weed species, ALOMY. In a few lines:
(§2)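 Plants were sown in standard soil and grown 8 days in a glasshouse (24/16° C. day/night, 14 hours light, 65% humidity), then sprayed post-emergence at 1000 or 250 g/ha from acetone/water (50:50) with 0.5% Tween 20. Damage was scored visually after 13 days (0 = none, 100 = total).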

Assay [8] relates to Amaranthus retoflexus (AMARE). The description is as above. Conditions: Amaranthus retroflexus, 312 h; post-emergence, 1,000 g/ha, evaluated after 13 days (100=total damage; 0=no damage); read-out: Percentage damage caused to weed species, AMARE. The essentials: as §2
For assay [9], the system named is Echinochloa crus-galli (ECHCG). The description is as above. Conditions: 312 h, post-emergence, 1,000 g/ha, evaluated after 13 days (100=total damage; 0=no damage), read-out: Percentage damage caused to weed species, ECHCG. The essentials:
as §2

Assay [10] deals with Ipomea hederaceae (IPOHE). The assay is described as above. Conditions: Ipomoea hederacea, 312 h; post-emergence, 1,000 g/ha, evaluated after 13 days (100=total damage; 0=no damage); read-out: Percentage damage caused to weed species, IPOHE. In a few lines:
as §2

In assay [11] the test system is Setaria faberi (SETFA). The assay is described as above. The following applies: 312 h, post-emergence, 1,000 g/ha, evaluated after 13 days (100=total damage; 0=no damage), read-out: Percentage damage caused to weed species, SETFA. In a few lines:
as §2

In assay [12] the test system is Solanum nigrum (SOLNI). The assay is described as above. The following applies: 312 h, post-emergence, 1,000 g/ha, evaluated after 13 days (100=total damage; 0=no damage), read-out: Percentage damage caused to weed species, SOLNI. In a few lines:
as §2

Take `COC(=O)c1nc(C2CC2)nc(NC2(c3cccc(C)n3)CC2)c1Cl` [Compound 4-13, 5-Chloro-2-cyclopropyl-6-methoxycarbonyl-4-[1-(6-methylpyrid-2-yl)-cyclopropyl-amino]-pyrimidine]: the pest or weed control at 1000 g/ha in [1] is 0%; in [2] it was 20%; in assay [3], 0%; in assay [4] it was 50%; in assay [5] it was 0%; in assay [6], 20%. The pest or weed control at 1000 g/ha turned out to be 20% in assay [7]; 60% in assay [8]; 0% in assay [9]; 60% in assay [10]; 0% in [11]; 50% in assay [12].
As for `COC(=O)c1nc(C2CC2)nc(NC2(COc3ccc(Cl)cc3)CC2)c1Cl` [Compound 4-16, 5-Chloro-4-[1-(4-chlorophenoxy-methyl)cyclo-propylamino]-2-cyclopropyl-6-methoxycarbonyl-pyrimidine], the pest or weed control at 1000 g/ha in assay [1] was 0%; in assay [2], 30%; in assay [3], 0%; in assay [4] it was 10%; in assay [5], 0%; in assay [6] it was 10%. The pest or weed control at 1000 g/ha in assay [7] amounted to 20%; in assay [8], 100%; in assay [9] it was 40%; in [10] it was 100%; in assay [11], 60%; in assay [12] it was 90%.
With `COC(=O)c1nc(C2CC2)nc(NC2(CCc3ccccc3)CC2)c1Cl` [Compound 4-17, 5-Chloro-2-cyclopropyl-6-methoxycarbonyl-4-[1-(2-phenylethyl)-cyclopropylamino]-pyrimidine], the pest or weed control at 1000 g/ha in [1] came to 10%; in assay [2] it was 50%; in [3] it was 20%; in [4] it was 70%; in assay [5], 0%; in assay [6], 10%. For the same compound, the pest or weed control at 1000 g/ha in [7] amounted to 20%; in assay [8] it was 100%; in [9] it was 30%; in assay [10], 60%; in assay [11], 60%; in assay [12], 70%.
For the compound `COC(=O)c1nc(C2CC2)nc(NC2(/C=C/c3ccc(F)cc3)CC2)c1Cl` [Compound 4-20, 5-Chloro-2-cyclopropyl-4-{1-[2-(4-fluorophenyl)-ethenyl]-cyclo-propylamino}-6-methoxycarbonyl-pyrimidine], the pest or weed control at 1000 g/ha in assay [1] amounted to 0%; in assay [2] it was 50%; in assay [3], 0%; in [4] it was 50%; in [5], 0%; in [6], 20%. Further, the pest or weed control at 1000 g/ha was 20% in [7]; 100% in [8]; 50% in assay [9]; 100% in [10]; 70% in assay [11]; 80% in assay [12].
For the compound `COC(=O)c1nc(C2CC2)nc(NC2(/C=C/c3ccc(Cl)cc3)CC2)c1Cl` [Compound 4-21, 5-Chloro-4-{1-[2-(4-chlorophenyl)-ethenyl]-cyclopropylamino}-2-cyclopropyl-6-methoxycarbonyl-pyrimidine], the pest or weed control at 1000 g/ha was 0% in assay [1]; 20% in [2]; 0% in assay [3]; 70% in assay [4]; 0% in [5]; 50% in assay [6]. Also, the pest or weed control at 1000 g/ha worked out at 20% in assay [7]; 100% in assay [8]; 50% in assay [9]; 80% in assay [10]; 60% in [11]; 80% in assay [12].
`COC(=O)c1nc(C2CC2)nc(NC2(/C=C/c3cc(C(F)(F)F)cc(C(F)(F)F)c3)CC2)c1Cl` [Compound 4-22, 4-{1-[2-(3,5-Bis-trifluoromethylphen-yl)-ethenyl]-cyclopropylamino}-5-chloro-2-cyclopropyl-6-methoxycarbonyl-pyrimidine]: the pest or weed control at 1000 g/ha in assay [1] is 20%; in [2] it was 70%; in assay [3], 20%; in assay [4], 80%; in [5], 10%; in assay [6], 20%. In addition, the pest or weed control at 1000 g/ha in [7] stood at 30%; in assay [8] it was 100%; in [9] it was 40%; in assay [10], 100%; in [11] it was 80%; in assay [12] it was 100%.
Turning to `COC(=O)c1nc(C2CC2)nc(NC2(/C=C/c3cccs3)CC2)c1Cl` [Compound 4-23, 5-Chloro-2-cyclopropyl-6-methoxycarbonyl-4-[1-(2-thiophen-2-ylethenyl)-cyclopropylamino]-pyrimidine], the pest or weed control at 1000 g/ha in assay [1] stood at 10%; in assay [2], 70%; in [3] it was 0%; in [4] it was 70%; in assay [5], 0%; in assay [6], 60%. The pest or weed control at 1000 g/ha in [7] was determined as 20%; in assay [8] it was 100%; in assay [9] it was 60%; in assay [10], 100%; in assay [11] it was 70%; in [12], 80%.
`COC(=O)c1nc(C2CC2)nc(NC2(/C=C/c3ccccc3Cl)CC2)c1Cl` [Compound 4-24, 5-Chloro-4-{1-[2-(2-chlorophenyl)-ethenyl]-cyclopropylamino}-2-cyclopropyl-6-methoxycarbonyl-pyrimidine]: the pest or weed control at 1000 g/ha stood at 10% in assay [1]; 100% in assay [2]; 0% in assay [3]; 40% in [4]; 0% in assay [5]; 90% in [6]. In addition, the pest or weed control at 1000 g/ha in assay [7] came out at 10%; in assay [8], 100%; in assay [9] it was 30%; in [10], 100%; in assay [11] it was 60%; in assay [12] it was 80%.
Regarding `COC(=O)c1nc(C2CC2)nc(NC2(/C=C/c3ccc(C)cc3)CC2)c1Cl` [Compound 4-25, 5-Chloro-2-cyclopropyl-6-methoxycarbonyl-4-{1-[2-(4-methylphenyl)-ethenyl]-cyclopropylamino}-pyrimidine], the pest or weed control at 1000 g/ha in [1] amounted to 10%; in assay [2] it was 100%; in assay [3], 10%; in assay [4], 30%; in assay [5], 0%; in [6], 60%. Also, the pest or weed control at 1000 g/ha stood at 40% in [7]; 100% in [8]; 60% in assay [9]; 100% in assay [10]; 60% in assay [11]; 80% in assay [12].
